Source: US20090143752A1, “Passive intraocular drug delivery devices and associated methods” (priority 2007, published 2009)

What was measured:
[1] = New Zealand White, rabbit, in vivo, 4 h
Method: A 100 microliter/30 G needle Hamilton syringe is used to administer a sub conjunctiva injection (n=2) of 20 microliters of 0.1M DSP at pH 7 into an eye of a New Zealand White Rabbit. The initial dose of DSP is 1.04 mg. […] The process is repeated for a total of 2 trials. About 23 micrograms of the approximate 1.04 mg subconjunctival injection of DSP are recovered from the whole eye after 4 hours. This illustrates the clearance effects of the transscleral pathway; in this case about 97.8 percent of the drug cleared the eye within four hours.

[2] = DSP in eye tissues after passive delivery from six chambered annular lens-shaped housing, immediate release (Example 2); format: in vivo, New Zealand White Rabbit; conditions: rabbit eye, 0.5 M DSP pH 7, 6.47 mgs in each of 3 chambers, housing on eye 20 minutes, 4 hours after application
Method: A six chambered annular lens-shaped housing is used to passively administer dexamethasone sodium phosphate (DSP) into the eye for immediate release. Chambers 1, 3, and 5 each contain a 2 mm Avalon Sponge hydrated with 25 μl of hydrogel and are further loaded with 6.47 mgs of 0.5 M DSP at pH 7 in each chamber. […] The process is repeated for a total of 4 trials.

percent of the drug cleared the eye [1]: about 97.8%
DSP Total Drug, Conjunctiva [2]: 6.2 ± 0.8 micrograms
DSP Total Drug, Retina/Choroid [2]: 1.1 ± 0.5 micrograms
DSP Total Drug, Sclera [2]: 4.3 ± 1.0 micrograms
DSP Total Drug, Whole Eye [2]: 14.9 ± 1.1 micrograms
SMILES: C[C@@H]1C[C@H]2[C@@H]3CCC4=CC(=O)C=C[C@]4(C)[C@@]3(F)[C@@H](O)C[C@]2(C)[C@@]1(O)C(=O)COP(=O)(O)O [DSP, dexamethasone sodium phosphate]
